Results from US11827611B2, “Ubiquitin-specific peptidase 24 inhibitor, medicinal composition including the same and method of delaying or reversing multidrug resistance in cancers using the same” (NATIONAL CHENG KUNG UNIVERSITY, priority 2020, dated 2023).
Where a name gives a salt, the structure may show the parent alone. Read-outs that look alike come from different tables or passages of the source.

Key:
USP24 = USP24 (Homo sapiens, UniProt Q9UPU5); assay: in vitro enzyme assay of pure recombinant USP24 protein with biotin-tetra-ub as the substrate; format: biochemical; details: for catalytic activity of recombinant purified USP24 proteins: biotin-tetra-ub substrate, FIG. 4C / 6C
Description: FIG. 4C illustrates the result of in vitro enzyme assay of the enzyme activity of USP24 pure recombinant USP24 protein with biotin-tetra-ub as the substrate in the absence or presence of USP24 inhibitor according to several embodiments of the present invention.
FIG. 6C illustrates the result of in vitro enzyme assay of the enzyme activity of USP24 pure recombinant USP24 protein with biotin-tetra-ub as the substrate in the absence or presence of USP24 inhibitor according to several embodiments of the present invention.

USP7 = USP7 (Homo sapiens, UniProt Q93009); assay: catalytic activity of USP7; format: biochemical; details: data not shown
[1] = tested on: USP24 substrates, Bax and BRD7, in A549 cells; assay: protein levels of USP24 substrates in A549 cells treated with USP24 inhibitor candidates (Western blotting); format: cell-based, human; details: for levels of Bax, BRD7 / level of p300: A549 cells; for levels of Bax, BRD7: FIG. 4B; for level of p300: FIG. 4D
Description: FIG. 4B illustrates a bar diagram showing the relative protein levels of USP24 substrates, Bax and BRD7, in A549 cells treated with various USP24 inhibitor candidates according to several embodiments of the present invention.
FIG. 4D illustrates the result of Western blotting assay with anti-Ubiquitin antibodies for evaluating the ubiquitination of p300 in A549 cells with or without USP24 overexpression or USP24 inhibitor according to an embodiment of the present invention.
Human lung adenocarcinoma epithelial cell line A549 and other lung cancer cell lines were cultured with RPMI 1640 medium (Invitrogen) containing 10% fetal bovine serum (FBS), 100 μg/ml streptomycin and 100 U/ml penicillin G sodium. All cells were incubated at 37° C. with 5% CO2. For transfecting plasmid, Polyjet (SignaGen) was used according to manufacturer's instructions.

lung cancer = lung cancer migratory ability; format: cell-based; details: data not shown
USP10 = USP10 (Homo sapiens, UniProt Q14694); assay: catalytic activity of USP10; format: biochemical; details: data not shown
EMT markers = assay: EMT markers; format: cell-based
HCT116OX5 = assay: cytotoxicity of HCT116OX5 cells treated with or without USP24 inhibitor; format: cell-based; details: HCT116OX5, FIG. 4F(c)
Description: (§1) FIG. 4E(a) to 4F(c) illustrate the results of the cytotoxicity of T24 cells [FIGS. 4E(a) and 4E(b)], TMZR [FIG. 4F(a)], Hone-1 CPT-R [FIG. 4F(b)] and HCT116OX5 [FIG. 4F(c)] treated with or without USP24 inhibitor according to several embodiments of the present invention.

T24 = assay: tumor size of T24 injected into SCID mice treated with taxol and USP24 inhibitor; format: in vivo; details: combined with taxol
Description: (§2) FIGS. 4K(a) and 4K(b) illustrate the results of the tumor size of T24 injected into SCID mice treated with taxol and USP24 inhibitor in the indicated time according to an embodiment of the present invention.
The experiments related with animals were approved by the Institutional Animal Care and Use Committee (IACUC) at National Cheng Kung University (NCKU). These transgenic mice were generated in National Laboratory Animal Center (NLAC, Taiwan, Tainan). After breeding, two-month-old transgenic mice were used to study lung cancer development. Caging was provided suitable space and accommodates appropriate population densities that allow animals' sufficient freedom of movement. To provide amounts of food that must be for transgenic mice normal growth, and maintenance of normal body weight. These transgenic mice were accessed to fresh and uncontaminated drinking water. Transgenic mice were also observed and cared at least for two to three times per week. All methods involving animals were performed in accordance with the relevant guidelines and regulations.

[2] = body weight of SCID mice treated with taxol and USP24 inhibitor; format: in vivo; details: data not shown
Description: as §2

P-gp = assay: Western blotting of the level and protein stability of P-gp in T24 treated with USP24 inhibitor; format: cell-based, human; details: T24 cells
Description: FIG. 4G(a) to 4H(b) illustrate the results of Western blotting assay of the level and protein stability of P-gp in T24 treated with USP24 inhibitor according to an embodiment of the present invention.

USP9x = USP9x (Homo sapiens, UniProt Q93008); assay: catalytic activity of USP9x; format: biochemical; details: data not shown
T24 cells [3] = assay: sphere formation of T24 cells with or without USP24 inhibitor; format: cell-based, human
Description: FIGS. 41(a) and 41(b) illustrate the results of the sphere formation of T24 cells with or without USP24 inhibitor treatment according to an embodiment of the present invention.

T24 cells [4] = assay: cytotoxicity of T24 cells in the treatment of taxol with or without USP24 inhibitor; format: cell-based, human; details: FIG. 4E
Description: as §1
FIG. 6A(a) to 6A(b) illustrate the results of the cytotoxicity of T24 cells in the treatment of taxol with or without USP24 inhibitor treatment according to an embodiment of the present invention.

TMZR = assay: cytotoxicity of TMZR cells treated with or without USP24 inhibitor; format: cell-based; details: FIG. 4F(a)
Description: as §1

Hone-1 CPT-R = assay: cytotoxicity of Hone-1 CPT-R cells treated with or without USP24 inhibitor; format: cell-based; details: FIG. 4F(b)
Description: as §1

T24 cells [5] = assay: taxol concentration inside cells evaluated by LC/MS/MS; format: cell-based, human
Description: FIG. 2H illustrates the images of the taxol concentration inside cells evaluated by LC/MS/MS with or without USP24 knockdown according to an embodiment of the present invention.
FIG. 4J illustrates the concentration of taxol inside cells treated with USP24 inhibitor evaluated by LC/MS/MS according to an embodiment of the present invention.
FIG. 6B illustrates the profiles of the taxol concentration in the taxol-resistant T24 cells treated with USP24-i101 (the upper panel) or DMSO (lower panel) detected by LC/MS/MS analysis according to an embodiment of the present invention.

[6] = cytotoxicity of HCC827-GR cells treated with or without USP24 inhibitor under various concentrations of Gefitinib; details: human
HCC827-GR cells = assay: as above

Chain of USP24 (Q9UPU5 whole entry): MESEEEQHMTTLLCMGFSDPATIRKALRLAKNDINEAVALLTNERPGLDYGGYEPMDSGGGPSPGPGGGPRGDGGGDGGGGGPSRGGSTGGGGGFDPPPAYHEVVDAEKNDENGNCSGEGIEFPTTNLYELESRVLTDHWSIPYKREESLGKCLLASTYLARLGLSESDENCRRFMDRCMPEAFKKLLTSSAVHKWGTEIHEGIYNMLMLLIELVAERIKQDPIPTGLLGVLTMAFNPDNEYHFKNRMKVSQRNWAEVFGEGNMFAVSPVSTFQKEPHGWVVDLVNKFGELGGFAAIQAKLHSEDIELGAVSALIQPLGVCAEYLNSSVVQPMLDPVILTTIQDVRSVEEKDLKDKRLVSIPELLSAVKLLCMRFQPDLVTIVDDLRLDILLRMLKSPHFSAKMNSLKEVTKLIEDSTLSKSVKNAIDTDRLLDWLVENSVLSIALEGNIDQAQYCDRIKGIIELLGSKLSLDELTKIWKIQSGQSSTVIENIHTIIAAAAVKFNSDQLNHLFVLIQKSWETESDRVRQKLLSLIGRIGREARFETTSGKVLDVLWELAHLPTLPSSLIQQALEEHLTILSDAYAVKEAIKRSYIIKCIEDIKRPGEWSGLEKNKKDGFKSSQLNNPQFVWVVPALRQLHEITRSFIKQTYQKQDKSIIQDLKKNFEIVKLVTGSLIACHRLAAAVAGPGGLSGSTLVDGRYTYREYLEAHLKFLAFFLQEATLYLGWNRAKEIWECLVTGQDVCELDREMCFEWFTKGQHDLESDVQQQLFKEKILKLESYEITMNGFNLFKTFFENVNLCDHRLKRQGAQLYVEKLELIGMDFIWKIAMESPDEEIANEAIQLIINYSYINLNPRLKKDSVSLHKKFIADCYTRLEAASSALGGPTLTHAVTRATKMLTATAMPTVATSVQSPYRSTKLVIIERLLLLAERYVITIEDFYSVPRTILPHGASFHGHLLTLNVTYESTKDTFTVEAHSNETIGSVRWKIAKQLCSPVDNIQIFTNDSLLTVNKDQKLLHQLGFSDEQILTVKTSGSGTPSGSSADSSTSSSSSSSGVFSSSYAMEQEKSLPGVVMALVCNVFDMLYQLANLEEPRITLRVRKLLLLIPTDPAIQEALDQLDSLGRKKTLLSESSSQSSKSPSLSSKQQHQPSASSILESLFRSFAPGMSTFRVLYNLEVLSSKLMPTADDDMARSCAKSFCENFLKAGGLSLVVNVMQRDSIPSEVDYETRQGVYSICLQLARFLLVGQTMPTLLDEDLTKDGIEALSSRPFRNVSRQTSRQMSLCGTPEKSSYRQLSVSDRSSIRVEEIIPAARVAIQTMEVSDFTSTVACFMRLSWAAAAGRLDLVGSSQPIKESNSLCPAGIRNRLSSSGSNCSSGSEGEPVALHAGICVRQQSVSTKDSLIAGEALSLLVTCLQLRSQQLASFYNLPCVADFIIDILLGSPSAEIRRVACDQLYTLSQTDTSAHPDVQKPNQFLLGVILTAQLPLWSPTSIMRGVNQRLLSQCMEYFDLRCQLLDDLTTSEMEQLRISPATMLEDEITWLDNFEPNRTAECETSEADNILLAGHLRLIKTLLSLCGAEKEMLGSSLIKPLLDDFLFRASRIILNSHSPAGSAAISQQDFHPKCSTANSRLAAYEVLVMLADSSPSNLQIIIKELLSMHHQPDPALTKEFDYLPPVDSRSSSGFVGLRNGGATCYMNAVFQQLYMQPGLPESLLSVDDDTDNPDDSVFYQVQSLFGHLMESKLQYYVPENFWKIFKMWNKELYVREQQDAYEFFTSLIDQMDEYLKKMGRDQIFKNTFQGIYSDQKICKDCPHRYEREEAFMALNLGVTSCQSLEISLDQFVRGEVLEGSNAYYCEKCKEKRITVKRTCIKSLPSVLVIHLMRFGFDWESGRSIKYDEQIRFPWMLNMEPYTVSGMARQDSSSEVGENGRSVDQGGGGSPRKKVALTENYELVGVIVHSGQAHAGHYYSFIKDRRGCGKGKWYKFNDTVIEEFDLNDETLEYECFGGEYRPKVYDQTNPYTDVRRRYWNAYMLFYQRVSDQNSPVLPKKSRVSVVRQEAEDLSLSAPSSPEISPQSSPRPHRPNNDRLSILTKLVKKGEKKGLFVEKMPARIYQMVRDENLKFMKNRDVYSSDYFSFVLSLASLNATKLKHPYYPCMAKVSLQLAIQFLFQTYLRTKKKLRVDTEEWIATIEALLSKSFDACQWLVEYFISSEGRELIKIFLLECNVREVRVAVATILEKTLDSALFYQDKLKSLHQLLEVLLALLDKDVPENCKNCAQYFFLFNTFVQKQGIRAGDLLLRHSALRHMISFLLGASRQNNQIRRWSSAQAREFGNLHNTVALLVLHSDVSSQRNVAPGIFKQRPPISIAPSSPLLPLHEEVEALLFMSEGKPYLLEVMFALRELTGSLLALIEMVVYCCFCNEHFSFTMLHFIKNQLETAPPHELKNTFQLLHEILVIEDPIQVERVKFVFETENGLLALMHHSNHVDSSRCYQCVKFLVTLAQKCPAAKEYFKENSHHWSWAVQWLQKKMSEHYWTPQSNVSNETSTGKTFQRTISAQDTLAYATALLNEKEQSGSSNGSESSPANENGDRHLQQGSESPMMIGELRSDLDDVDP
Chain of USP7 (Q93009 whole entry, species assumed): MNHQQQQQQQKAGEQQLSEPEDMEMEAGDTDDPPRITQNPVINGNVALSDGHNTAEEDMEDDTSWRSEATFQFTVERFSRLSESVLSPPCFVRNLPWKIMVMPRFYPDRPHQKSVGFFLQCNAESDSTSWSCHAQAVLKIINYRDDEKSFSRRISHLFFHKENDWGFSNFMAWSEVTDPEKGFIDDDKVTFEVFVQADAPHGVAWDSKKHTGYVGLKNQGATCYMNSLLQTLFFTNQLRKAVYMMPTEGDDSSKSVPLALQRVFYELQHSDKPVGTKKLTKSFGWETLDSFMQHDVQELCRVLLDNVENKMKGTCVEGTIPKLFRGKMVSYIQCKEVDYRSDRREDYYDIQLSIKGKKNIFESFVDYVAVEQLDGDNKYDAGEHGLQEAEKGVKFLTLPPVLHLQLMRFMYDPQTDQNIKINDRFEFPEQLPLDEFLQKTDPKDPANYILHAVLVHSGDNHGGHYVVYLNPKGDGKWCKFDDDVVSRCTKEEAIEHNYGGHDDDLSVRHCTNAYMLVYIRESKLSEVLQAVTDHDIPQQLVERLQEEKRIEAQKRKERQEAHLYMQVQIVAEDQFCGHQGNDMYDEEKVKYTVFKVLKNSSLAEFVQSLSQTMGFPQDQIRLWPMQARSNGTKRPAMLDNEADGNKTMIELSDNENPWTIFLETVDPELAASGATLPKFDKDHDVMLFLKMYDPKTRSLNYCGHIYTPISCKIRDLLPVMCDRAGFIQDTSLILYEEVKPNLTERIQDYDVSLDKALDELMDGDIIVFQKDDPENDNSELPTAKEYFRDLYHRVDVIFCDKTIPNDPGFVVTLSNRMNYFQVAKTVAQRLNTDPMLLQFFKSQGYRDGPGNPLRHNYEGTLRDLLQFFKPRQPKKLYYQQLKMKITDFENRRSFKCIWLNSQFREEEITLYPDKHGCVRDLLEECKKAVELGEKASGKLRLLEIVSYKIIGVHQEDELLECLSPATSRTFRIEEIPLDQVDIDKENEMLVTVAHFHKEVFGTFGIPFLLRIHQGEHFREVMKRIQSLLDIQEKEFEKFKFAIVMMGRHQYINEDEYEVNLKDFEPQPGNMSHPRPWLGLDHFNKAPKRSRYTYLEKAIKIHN
Chain of USP10 (Q14694 whole entry): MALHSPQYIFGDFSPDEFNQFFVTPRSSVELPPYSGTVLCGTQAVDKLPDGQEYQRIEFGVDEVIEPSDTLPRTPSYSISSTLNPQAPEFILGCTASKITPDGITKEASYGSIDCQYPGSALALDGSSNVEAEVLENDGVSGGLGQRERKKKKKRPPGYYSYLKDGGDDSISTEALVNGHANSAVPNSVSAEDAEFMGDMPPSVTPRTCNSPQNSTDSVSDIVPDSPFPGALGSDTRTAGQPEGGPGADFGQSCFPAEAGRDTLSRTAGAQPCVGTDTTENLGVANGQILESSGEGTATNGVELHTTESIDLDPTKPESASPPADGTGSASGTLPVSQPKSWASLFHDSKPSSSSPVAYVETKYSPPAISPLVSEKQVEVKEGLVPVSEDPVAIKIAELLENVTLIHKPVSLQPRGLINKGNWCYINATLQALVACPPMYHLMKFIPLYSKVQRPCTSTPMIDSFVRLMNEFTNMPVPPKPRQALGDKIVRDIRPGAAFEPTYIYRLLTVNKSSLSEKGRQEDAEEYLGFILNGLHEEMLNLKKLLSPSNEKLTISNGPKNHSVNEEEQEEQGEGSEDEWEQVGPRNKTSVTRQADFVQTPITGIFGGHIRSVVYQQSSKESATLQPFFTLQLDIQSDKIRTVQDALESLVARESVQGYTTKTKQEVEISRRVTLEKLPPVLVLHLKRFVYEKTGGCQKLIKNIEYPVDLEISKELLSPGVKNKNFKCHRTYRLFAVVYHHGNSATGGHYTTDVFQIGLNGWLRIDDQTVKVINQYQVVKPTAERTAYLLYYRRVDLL

CCCCNS(=O)(=O)c1ccc(NC(=O)c2ccc3ccccc3c2O)c([N+](=O)[O-])c1 [NCI158067]
catalytic activity of recombinant purified USP24 proteins (USP24): inhibited the catalytic activity | catalytic activity of USP7 (USP7): could inhibit | levels of Bax, BRD7 [1]: could decrease the levels | level of p300 [1]: could decrease the levels | lung cancer migration (lung cancer): could inhibit lung cancer migration | catalytic activity of USP10 (USP10): could inhibit

CN1CCN(CCCCN2c3ccccc3Sc3ccc(C(=O)c4ccccc4)cc32)CC1 [NCI677397, (10-(4-(4-Methylpiperazin-1-yl)butyl)-10H-phenothiazin-2-yl)(phenyl)methanone oxalate]
EMT markers (EMT markers): inhibited | drug resistance induced by oxaliplatin in colorectal cancer (HCT116OX5): could significantly block the drug resistance | cytotoxicity of taxol in the inhibition of cancer size and weight (T24): increased the cytotoxicity of taxol in the inhibition of cancer size and weight | body weight [2]: did not affect the body weight | catalytic activity of recombinant purified USP24 proteins (USP24): inhibited the catalytic activity | specificity in blocking USP24 enzyme activity (USP24; versus USP7, USP9x, USP10): higher specificity | catalytic activity of USP7 (USP7): could not block | level of P-gp (P-gp): could decrease the level of P-gp | levels of Bax, BRD7 [1]: could decrease the levels | level of p300 [1]: could decrease the levels | catalytic activity of USP9x (USP9x): could not block | lung cancer migration (lung cancer): could inhibit lung cancer migration | T24 sphere formation ability (T24 cells [3]): inhibit the T24 sphere formation ability | catalytic activity of USP10 (USP10): could not block | drug resistance induced by taxol in lung cancer (T24 cells [4]): could significantly block the drug resistance | drug resistance induced by TMZ in brain cancer (TMZR): could significantly block the drug resistance | drug resistance induced by Camptothecin in NPC (Hone-1 CPT-R): could significantly block the drug resistance | concentration of taxol inside cells, with USP24 inhibitor (T24 cells [5]; under 1000 nM taxol treatment): 321.36 nM

CN1CCN(CCN2c3ccccc3Sc3ccc(C(=O)c4ccccc4)cc32)CC1 [USP24-i101, (10-(2-(4-Methylpiperazin-1-yl)ethyl)-10H-phenothiazin-2-yl)(phenyl)methanone]
viability at 1 μg/mL [6]: 94% | viability at 5 μg/mL [6]: 80.5% | IC50 (HCC827-GR cells; read-out: IC50 of gefitinib in HCC827-GR with USP24-i101, 1 μg/mL of USP24-i101): 6.3 nM | IC50 (HCC827-GR cells; read-out: IC50 of gefitinib in HCC827-GR with USP24-i101, 5 μg/mL of USP24-i101): 3.1 nM | catalytic activity of recombinant purified USP24 proteins (USP24): had comparably catalytic activity to NCI699397

CCC[C@H](NC(=O)/C(C#N)=C/c1cccc(Br)n1)c1ccccc1 [WP1130, reference compound]
inhibition of the substrates of USP24 in lung cancer ([1]; FIG. 4C): could not inhibit

CC(=O)O[C@H]1C(=O)[C@@]2(C)[C@H]([C@H](OC(=O)c3ccccc3)[C@]3(O)C[C@H](OC(=O)[C@H](O)[C@@H](NC(=O)c4ccccc4)c4ccccc4)C(C)=C1C3(C)C)[C@]1(OC(C)=O)CO[C@@H]1C[C@@H]2O [taxol]
accumulation of taxol inside the drug resistant cells, T24 (T24 cells [5]; loss of USP24 (knockdown)): 272.7 nM/1000 nM | accumulation of taxol inside the drug resistant cells, T24 (T24 cells [5]; without USP24 knockdown): 110.8 nM/1000 nM
